Assay results published in patent US20050013852A1, “Dermal for amino laevulinic acid” (priority 2000, published 2005).

Legend:
[1] = sedimentation (sinking speed) of ALA particles in NE solution; format: physicochemical; conditions: sieve fraction 60-90 μm
[2] = fresh ALA solution, approximate physiological value of 8, after two weeks; cited from earlier work

NCC(=O)CCC(=O)O [ALA, 5-aminolaevulinic acid]
Sinking speed of the ALA particles in solution ([1]; NE 12 % g/g in solution): 396 μm/10 s | Sinking speed of the ALA particles in solution ([1]; NE 18 % g/g in solution): 119 μm/10 s | Sinking speed of the ALA particles in solution ([1]; NE 24 % g/g in solution): 3 μm/10 s | undecomposed active substance [2]: approx. 10%
